Values quoted from earlier work as cited in US20210120811A1, “AQUEOUS CAPSULE SUSPENSION CONCENTRATES CONTAINING A HERBICIDAL SAFENER AND A PESTICIDAL ACTIVE SUBSTANCE” (priority 2018, published 2021).

For `CC1(C)CON(Cc2ccc(Cl)cc2Cl)C1=O` [DCPMI, 2-[(2,4-dichlorophenyl)methyl]-4,4′-dimethyl-3-isoxazolidinone], the water solubility is given as 39.5 ppm.
